*1 amine or outer side, *2 acyl side, *3 side chain or, on linkers, in order; H or OH if unused. Where a SMILES comes first, the peptide text is derived from it. Bridges are numbered along the chain shown (N, C = ends). [ ]: non-standard residue; d: D form. The star is where a group is joined. ξ: configuration not given here. X3 = C[C@@H](C(=O)[*:2])N(Cc1ccc2ccccc2c1)[*:1]; NH(1-naphthylmethyl) = c1ccc2c(CN*)cccc2c1; Phe(4-Cl) = N[C@@H](Cc1ccc(Cl)cc1)C(=O)O; dPhe(4-Cl) = N[C@H](Cc1ccc(Cl)cc1)C(=O)O; 2Nal = N[C@@H](Cc1ccc2ccccc2c1)C(=O)O; d1Nal = N[C@H](Cc1cccc2ccccc12)C(=O)O; d2Nal = N[C@H](Cc1ccc2ccccc2c1)C(=O)O; dNMeF = CN[C@H](Cc1ccccc1)C(=O)O; dThr(3ξ) = CC(O)[C@@H](N)C(=O)O; X1 = O=C(C(N[*:1])S[*:3])[*:2]; NMeA = CN[C@@H](C)C(=O)O; dNMeA = CN[C@H](C)C(=O)O; ξF = NC(Cc1ccccc1)C(=O)O; Abu = CC[C@H](N)C(=O)O; X2 = CC(O)[C@H](CO)N*; Ahp = NCCCCCCC(=O)O; Ahx = NCCCCCC(=O)O; Bn = c1ccc(C*)cc1; ξC = NC(CS)C(=O)O; Mpa = O=C(O)CCS
Target: Somatostatin receptor type 4 (Rattus norvegicus, UniProt P30937)
Sequence (P30937 whole entry): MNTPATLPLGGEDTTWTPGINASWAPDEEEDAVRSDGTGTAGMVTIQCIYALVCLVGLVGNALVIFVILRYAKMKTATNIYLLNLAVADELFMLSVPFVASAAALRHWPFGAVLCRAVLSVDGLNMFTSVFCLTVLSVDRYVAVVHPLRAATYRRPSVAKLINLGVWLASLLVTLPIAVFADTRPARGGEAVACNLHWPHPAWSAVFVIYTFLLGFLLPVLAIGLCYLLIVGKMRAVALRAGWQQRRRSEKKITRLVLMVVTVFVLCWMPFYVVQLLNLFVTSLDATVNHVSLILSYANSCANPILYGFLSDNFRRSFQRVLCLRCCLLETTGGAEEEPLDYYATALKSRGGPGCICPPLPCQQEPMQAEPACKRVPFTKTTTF

Row | SMILES | Ki
1 | CC(O)[C@@H]1NC(=O)[C@@H](CCCCN)NC(=O)[C@H](Cc2c[nH]c3ccccc23)NC(=O)[C@@H](Cc2ccccc2)NC(=O)[C@H](Cc2ccccc2)NC(=O)[C@@H](CC(N)=O)NC(=O)[C@H](CCCCN)NC(=O)[C@@H](NC(=O)CNC(=O)[C@H](C)N)CSSC[C@H](C(=O)O)NC(=O)[C@@H](CO)NC(=O)[C@H]([C@@H](C)O)NC(=O)[C@@H](Cc2ccccc2)NC1=O (stereo partly drawn) [SRIF-D-Trp8] | 0.002 nM
2 | C[C@@H](O)[C@H](NC(=O)[C@@H]1CSSC[C@H](NC(=O)[C@H](N)Cc2ccc3ccccc3c2)C(=O)N[C@@H](Cc2ccc(O)cc2)C(=O)N[C@H](Cc2c[nH]c3ccccc23)C(=O)N[C@@H](CCCCN)C(=O)N[C@@H]([C@@H](C)O)C(=O)N1)C(N)=O [D-Nal-c[Cys-Tyr-D-Trp-Lys-Thr-Cys]-Thr-NH2] | 0.08 nM
3 | CC(C)[C@H](NC(=O)[C@H](CCCCN)NC(=O)[C@@H](Cc1c[nH]c2ccccc12)NC(=O)[C@H](Cc1ccc(O)cc1)NC(=O)[C@H](C)NC(=O)[C@H](N)Cc1ccccc1)C(=O)N[C@@H](C)C(=O)N[C@H](Cc1ccc2ccccc2c1)C(N)=O [D-Phe-AIa-Tyr-D-Trp-Lys-Val-Ala-D-Nal-NH2] (H-[dF]AY[dW]KVA[d2Nal]-NH2) | 5.9 nM
4 | CC(C)[C@H](NC(=O)[C@H](CCCCN)NC(=O)[C@@H](Cc1c[nH]c2ccccc12)NC(=O)[C@H](Cc1ccc(O)cc1)NC(=O)[C@H](Cc1ccc(Cl)cc1)NC(=O)[C@@H](N)Cc1ccccc1)C(=O)N[C@@H](Cc1ccccc1)C(=O)N[C@H](C)C(N)=O [BIM 23064] (H-F[Phe(4-Cl)]Y[dW]KVF[dA]-NH2) | 17 nM
5 | C[C@H](O)[C@H]1NC(=O)[C@H](CCCCN)NC(=O)[C@@H](Cc2c[nH]c3ccccc23)NC(=O)[C@@H](Cc2ccccc2)NC(=O)[C@@H](C)N(C)C(=O)[C@@H](Cc2ccccc2)N(C)C1=O [N-Methylcyclo(D-Ala-D-Phe-D-Trp-L-Lys-D-Thr-N-methyl-D-Phe-)] (cyclo(K[dT][dNMeF][dNMeA][dF][dW])) | 405 nM
6 | CC[C@@H]1NC(=O)[C@H](CCCCN)NC(=O)[C@@H](Cc2c[nH]c3ccccc23)NC(=O)[C@H](Cc2ccc(O)cc2)NC(=O)[C@H](C)N(C)C(=O)[C@H](Cc2ccccc2)NC1=O [BIM-23027] (cyclo([Abu]F[NMeA]Y[dW]K)) | 6.2 nM
7 | CC(C)[C@@H]1NC(=O)[C@H](CCCCN)NC(=O)[C@@H](Cc2c[nH]c3ccccc23)NC(=O)[C@H](Cc2ccc(O)cc2)NC(=O)CCSSC(C(=O)N[C@@H](Cc2ccccc2)C(N)=O)NC1=O (some centres undefined) [CAS_117580-24-2] ([Mpa]Y[dW]KV[X1]F-NH2; disulfide 1-6) | 3.9 nM
8 | NCCCCC1NC(=O)C(Cc2c[nH]c3ccccc23)NC(=O)C(Cc2ccc(O)cc2)NC(=O)C(NC(=O)C(N)Cc2ccccc2)CSSCC(C(=O)NCc2cccc3ccccc23)NC(=O)C(CO)NC1=O (centres undefined) [NC4-28B] (H-FCYWKSC-{NH(1-naphthylmethyl)}; disulfide 2-7; configuration not given here) | 1 nM
9 | CC(C)[C@H](NC(=O)[C@H](CCCCN)NC(=O)[C@@H](Cc1c[nH]c2ccccc12)NC(=O)[C@H](Cc1ccc(O)cc1)NC(=O)[C@H](Cc1ccccc1)NC(=O)[C@@H](N)Cc1ccccc1)C(=O)N[C@@H](Cc1ccccc1)C(=O)N[C@H](C(N)=O)[C@@H](C)O [BIM-23058] (H-FFY[dW]KVFT-NH2) | 1.2 nM
10 | C[C@@H](O)[C@@H]1NC(=O)[C@H](CCCCN)NC(=O)[C@@H](Cc2c[nH]c3ccccc23)NC(=O)[C@H](Cc2ccccc2)NC(=O)[C@H](Cc2ccc(Cl)cc2)NC(=O)CCCCCCNC(=O)[C@H](Cc2ccccc2)NC1=O [L-362862] (cyclo([Ahp][Phe(4-Cl)]F[dW]KTF)) | 0.47 nM
11 | NCCCC[C@@H]1NC(=O)[C@@H](Cc2c[nH]c3ccccc23)NC(=O)[C@H](Cc2ccccc2)NC(=O)CCCCCCNC(=O)[C@H](COCc2ccccc2)NC1=O [c[Aha-Phe-D-Trp-Lys-Ser(Bzl)]] (cyclo([Ahp]F[dW]KS(Bn))) | 188 nM
12 | CC(C)[C@H](NC(=O)[C@H](CCCCN)NC(=O)[C@@H](Cc1c[nH]c2ccccc12)NC(=O)[C@H](Cc1ccc(O)cc1)NC(=O)[C@H](Cc1ccc(Cl)cc1)NC(=O)[C@@H](N)Cc1ccccc1)C(=O)N[C@@H](Cc1ccccc1)C(=O)N[C@@H](Cc1ccc2ccccc2c1)C(N)=O [BIM 23063] (H-F[Phe(4-Cl)]Y[dW]KVF[2Nal]-NH2) | 43 nM
13 | CC1NC(=O)C(CCCCN)NC(=O)C(Cc2c[nH]c3ccccc23)NC(=O)C(Cc2ccc(O)cc2)NC(=O)C(NC(=O)C(N)Cc2ccccc2)CSSCC(C(=O)NCc2cccc3ccccc23)NC1=O (centres undefined) [BIM 23034] (H-FCYWKAC-{NH(1-naphthylmethyl)}; disulfide 2-7; configuration not given here) | 0.19 nM
14 | CC(C)[C@@H]1NC(=O)[C@@H](CCCCN)NC(=O)[C@@H](Cc2c[nH]c3ccccc23)NC(=O)[C@@H](Cc2ccc(O)cc2)NC(=O)[C@@H](C)N(C)C(=O)[C@@H](Cc2ccccc2)NC1=O | 26 nM
15 | C[C@@H](O)[C@@H]1NC(=O)[C@H](CCCCN)NC(=O)[C@@H](Cc2c[nH]c3ccccc23)NC(=O)[C@H](Cc2ccccc2)NC(=O)CCCCCCNC1=O [c[Aha-Phe-D-Trp-Lys-Thr]] (cyclo([Ahp]F[dW]KT)) | 1000 nM
16 | CC(C)[C@H](NC(=O)[C@H](CCCCN)NC(=O)[C@@H](Cc1c[nH]c2ccccc12)NC(=O)[C@H](Cc1ccc(O)cc1)NC(=O)[C@H](C)NCc1ccc2ccccc2c1)C(=O)N[C@@H](C)C(=O)N[C@H](C(N)=O)[C@@H](C)O [D-Nal-Ala-Tyr-D-Trp-Lys-Val-Ala-Thr-NH2] (H-[X3]Y[dW]KVAT-NH2) | 146 nM
17 | CC(C)[C@H](NC(=O)[C@H](CCCCN)NC(=O)[C@@H](Cc1c[nH]c2ccccc12)NC(=O)[C@H](Cc1ccc(O)cc1)NC(=O)[C@H](Cc1ccccc1)NC(=O)[C@H](N)Cc1ccccc1)C(=O)N[C@@H](Cc1ccccc1)C(=O)N[C@H](Cc1ccccc1)C(N)=O [D-Phe-Phe-Tyr-D-Trp-Lys-Val-Phe-D-Phe-NH2] (H-[dF]FY[dW]KVF[dF]-NH2) | 3.3 nM
18 | CC(C)[C@H](NC(=O)[C@H](CCCCN)NC(=O)[C@@H](Cc1c[nH]c2ccccc12)NC(=O)[C@H](Cc1ccc(O)cc1)NC(=O)[C@H](C)NC(=O)[C@H](N)Cc1ccc(Cl)cc1)C(=O)N[C@@H](C)C(=O)N[C@@H](Cc1ccc2ccccc2c1)C(N)=O [CAS_150155-67-2] (H-[dPhe(4-Cl)]AY[dW]KVA[2Nal]-NH2) | 14 nM
19 | CC(C)C1NC(=O)C(CCCCN)NC(=O)C(Cc2c[nH]c3ccccc23)NC(=O)C(Cc2ccc(O)cc2)NC(=O)C(C)N(C)C(=O)C(Cc2ccccc2)NC1=O (centres undefined) [CAS_3086456] | 5.5 nM
20 | CC(C)[C@H](NC(=O)[C@H](CCCCN)NC(=O)[C@@H](Cc1c[nH]c2ccccc12)NC(=O)[C@H](Cc1ccc(O)cc1)NC(=O)[C@H](Cc1ccccc1)NC(=O)[C@H](N)Cc1ccccc1)C(=O)N[C@@H](Cc1ccccc1)C(=O)N[C@H](Cc1cccc2ccccc12)C(N)=O [BIM 23056] (H-[dF]FY[dW]KVF[d1Nal]-NH2) | 43 nM
21 | C[C@@H](O)[C@H](NC(=O)[C@H](Cc1ccccc1)NC(=O)[C@@H](NC(=O)[C@H](CCCCN)NC(=O)[C@@H](Cc1c[nH]c2ccccc12)NC(=O)[C@H](Cc1ccc(O)cc1)NC(=O)[C@H](Cc1ccc(Cl)cc1)NC(=O)[C@H](N)Cc1ccccc1)[C@@H](C)O)C(N)=O [BIM 23068] (H-[dF][Phe(4-Cl)]Y[dW]KTFT-NH2) | 1.1 nM
22 | CC(O)C1NC(=O)C(CCCCN)NC(=O)C(Cc2c[nH]c3ccccc23)NC(=O)C(Cc2ccc(O)cc2)NC(=O)C(NC(=O)C(N)Cc2ccccc2)CSSCC(C(=O)NCc2cccc3ccccc23)NC1=O (centres undefined) [BIM 23060] (H-FCYWKTC-{NH(1-naphthylmethyl)}; disulfide 2-7; configuration not given here) | 0.09 nM
23 | C[C@@H](OCc1ccccc1)[C@@H]1NC(=O)[C@H](CCCCN)NC(=O)[C@@H](Cc2c[nH]c3ccccc23)NC(=O)[C@H](Cc2ccccc2)NC(=O)CCCCCNC1=O [c[Ahx-Phe-D-Trp-Lys-Thr(Bzl)]] (cyclo([Ahx]F[dW]KT(Bn))) | 34 nM
24 | CC(C)[C@H](NC(=O)[C@H](CCCCN)NC(=O)[C@@H](Cc1c[nH]c2ccccc12)NC(=O)[C@H](Cc1ccc(O)cc1)NC(=O)[C@H](Cc1ccc(Cl)cc1)NC(=O)[C@H](N)Cc1ccccc1)C(=O)N[C@@H](Cc1ccccc1)C(=O)N[C@H](C(N)=O)[C@@H](C)O [BIM 23057] (H-[dF][Phe(4-Cl)]Y[dW]KVFT-NH2) | 8.1 nM
25 | C[C@@H](O)[C@@H]1NC(=O)[C@H](CCCCN)NC(=O)[C@@H](Cc2c[nH]c3ccccc23)NC(=O)[C@H](Cc2ccccc2)NC(=O)[C@@H]2CSSCC(NC1=O)C(=O)NCCCCCCC(=O)N2 [(1R,4S,7S,10R,13S,16R)-4-[(R)-1-Hydroxyethyl]-7-(4-aminobutyl)-10-(1H-indole-3-ylmethyl)-13-benzyl-28,29-dithia-2,5,8,11,14,17,25-heptaazabicyclo[14.10.4]triacontane-3,6,9,12,15,18,26-heptone] (cyclo([Ahp]CF[dW]KT[ξC]); disulfide 2-7) | 1.2 nM
26 | CC(O)[C@H](CO)NC(=O)[C@@H]1CSSCC(NC(=O)C(N)Cc2ccccc2)C(=O)N[C@H](Cc2ccccc2)C(=O)N[C@H](Cc2c[nH]c3ccccc23)C(=O)N[C@H](CCCCN)C(=O)N[C@H](C(C)O)C(=O)N1 (some centres undefined) (H-[ξF][ξC][dF][dW][dK][dThr(3ξ)]C-X2; disulfide 2-7) | 0.57 nM
27 | CC[C@H](NC(=O)[C@@H](N)Cc1ccc(Cl)cc1)C(=O)N[C@@H](Cc1ccc(O)cc1)C(=O)N[C@H](Cc1c[nH]c2ccccc12)C(=O)N[C@@H](CCCCN)C(=O)N[C@H](C(=O)N[C@@H](C)C(=O)N[C@H](Cc1ccccc1)C(N)=O)C(C)C [BIM 23067] (H-[Phe(4-Cl)][Abu]Y[dW]KVA[dF]-NH2) | 15 nM
28 | CC(C)[C@H](NC(=O)[C@H](CCCCN)NC(=O)[C@@H](Cc1c[nH]c2ccccc12)NC(=O)[C@H](Cc1ccc(O)cc1)NC(=O)[C@H](C)NC(=O)[C@H](N)Cc1ccccc1)C(=O)N[C@@H](C)C(=O)N[C@@H](Cc1ccc2ccccc2c1)C(N)=O [L-Alaninamide,D-phenylalanyl-L-alanyl-L-tyrosyl-D-tryptophyl-L-lysyl-L-valyl-L-alanyl-3-(2-naphthalenyl)-(9CI)] (H-[dF]AY[dW]KVA[2Nal]-NH2) | 29 nM
29 | C[C@@H](O)[C@H](NC(=O)[C@H](Cc1ccccc1)NC(=O)[C@@H](NC(=O)[C@H](CCCCN)NC(=O)[C@@H](Cc1c[nH]c2ccccc12)NC(=O)[C@H](Cc1ccc(O)cc1)NC(=O)[C@H](Cc1ccc(Cl)cc1)NC(=O)[C@H](N)Cc1ccc2ccccc2c1)[C@@H](C)O)C(N)=O [CAS_150155-63-8] (H-[d2Nal][Phe(4-Cl)]Y[dW]KTFT-NH2) | 9.5 nM

Source: BindingDB's records for PubMed 8102785 (University of Pennsylvania, 1993)
